# Laboratory results taken from patent US20240298646A1, “ANTIBIOFILM PRESERVATIVE COMPOSITIONS” (SHARON PERSONAL CARE LTD., priority 2021, published 2024).
# Assays:
# Assay in all cases: Minimum inhibitory concentration (MIC) and checkerboard assay
# Type in all cases: cell-based
# Details in all cases: unit assumed
# [1] = tested on: Escherichia coli (ATCC 8739)
# Text: (§1) Escherichia coli (ATCC 8739), Staphylococcus aureus (ATCC 6538), P. aeruginosa (ATCC 9027), Candida albicans (ATCC 10231), and Aspergillus brasiliensis (ATCC 16404) were obtained from ATCC and cultured according to the manufacturer's instructions. These microorganisms are routinely used for minimum inhibitory concentration (MIC), checkerboards and challenge tests according to the US and EU recommendations for the efficacy of preservatives in the cosmetic industry. Bacterial strains were maintained in tryptic soy agar (TSA) (Hy-labs, Rehovot, Israel), while yeast and mold strains were maintained in sabouraud dextrose agar (SDA) (Hy-labs, Israel), supplemented with oxytetracycline at a concentration of 1% (Hy-labs, Israel). […] Briefly, growth of E. coli, S. aureus, P. aeruginosa, P. gergoviea, B. cepacia, C. albicans, and A. brasiliensis was observed during incubation with two-fold serial dilutions of the abovementioned compounds in Mueller Hinton (MH) broth, using a 96-well plate (BIOFUL, Israel). For the checkerboard assay using a 96-well plate, decreasing concentrations of one compound were added from top to bottom of the plate using serial dilutions. Decreasing concentrations of the second compound were added to the plate from the right, having the highest concentration, to the left side of the plate with the lowest concentration. […] Bacteria inoculated plates were incubated for 24 h at 32° C. with shaking, while fungi inoculated plates were incubated at 23° C. for 48-72 h with shaking. Microorganism growth was evaluated by a spectrophotometer O.D. reads (BioTek, Israel). The culture is standardized using standard microbiological techniques to have a concentration of very near 1 million cells per milliliter. The antimicrobial agent is diluted a number of times, with Tryptic soy broth or Sabouraud broth for fungi. After the antimicrobial agent had been diluted, a volume of the standardized inoculums was added to each dilution vessel, bringing the microbial concentration to approximately 1,000,000 cells per milliliter. The inoculated, serially diluted antimicrobial agent was incubated at an appropriate temperature for the test organism, 24 hours for bacteria 48 for yeast and 72 for mold. […] The microorganism strains used for the test were E. coli ATCC 8739, P. aeruginosa ATCC 9027, S. aureus ATCC 6538, C. albicans ATCC 10231, A. brasiliensis ATCC 16404. Measuring synergy between preservatives can be done by the widely described Fractional Inhibitory Concentration Index (FICI). While the MIC is defined as the lowest concentration of molecule alone or in combination that inhibited visible growth, the in vitro interactions can be quantified as FICI and calculated using the following formula: […]
# [2] = tested on: Staphylococcus aureus (ATCC 6538)
# Text: as §1
# [3] = tested on: P. aeruginosa (ATCC 9027)
# Text: as §1
# [4] = tested on: Candida albicans (ATCC 10231)
# Text: (§2) Escherichia coli (ATCC 8739), Staphylococcus aureus (ATCC 6538), P. aeruginosa (ATCC 9027), Candida albicans (ATCC 10231), and Aspergillus brasiliensis (ATCC 16404) were obtained from ATCC and cultured according to the manufacturer's instructions. These microorganisms are routinely used for minimum inhibitory concentration (MIC), checkerboards and challenge tests according to the US and EU recommendations for the efficacy of preservatives in the cosmetic industry. Bacterial strains were maintained in tryptic soy agar (TSA) (Hy-labs, Rehovot, Israel), while yeast and mold strains were maintained in sabouraud dextrose agar (SDA) (Hy-labs, Israel), supplemented with oxytetracycline at a concentration of 1% (Hy-labs, Israel). […] Briefly, growth of E. coli, S. aureus, P. aeruginosa, P. gergoviea, B. cepacia, C. albicans, and A. brasiliensis was observed during incubation with two-fold serial dilutions of the abovementioned compounds in Mueller Hinton (MH) broth, using a 96-well plate (BIOFUL, Israel). For the checkerboard assay using a 96-well plate, decreasing concentrations of one compound were added from top to bottom of the plate using serial dilutions. Decreasing concentrations of the second compound were added to the plate from the right, having the highest concentration, to the left side of the plate with the lowest concentration. […] Bacteria inoculated plates were incubated for 24 h at 32° C. with shaking, while fungi inoculated plates were incubated at 23° C. for 48-72 h with shaking. Microorganism growth was evaluated by a spectrophotometer O.D. reads (BioTek, Israel). In additional exemplary procedure, MIC evaluation test with Candida albicans was performed in test tubes. Growth in this case is visually evaluated. A pure culture of a single microorganism was grown in Tryptic soy broth, or Sabouraud dextrose broth for yeast and mold. […] While the MIC is defined as the lowest concentration of molecule alone or in combination that inhibited visible growth, the in vitro interactions can be quantified as FICI and calculated using the following formula: […]
# [5] = tested on: Aspergillus brasiliensis (ATCC 16404)
# Text: as §2, with “In another” for “In additional”, “with A. brasiliensis” for “with Candida albicans”, “Sabouraud” for “Sabouraud dextrose”
SMILES,MIC E. coli [1],MIC S. aureus [2],MIC P. aeruginosa [3],MIC C. albicans [4],MIC A. brasiliensis [5]
"CCCCC(CC)COCC(O)CO (stereo not drawn) [EHG, ethylhexylglycerin]",5000 µg/mL,2500 µg/mL,> 5000 µg/mL,2500 µg/mL,1250 µg/mL
"Cc1occc(=O)c1O [Maltol, maltol]",5000 µg/mL,5000 µg/mL,1250 µg/mL,1880 µg/mL,1250 µg/mL
"CC(=O)[O-].CC(=O)[O-].[Zn+2] [Zinc Acetate, zinc acetate]",312 µg/mL,160 µg/mL,312 µg/mL,110 µg/mL,100 µg/mL
